In ChEMBL document CHEMBL1201862, “PubChem BioAssay data set” (2004):
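Five compound concentrations were applied to cells in 96-well plates for 48 hours; endpoints were derived by simple linear interpolation of the resulting dose-response curve. The concentration for 50% growth inhibition is given as GI50.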 Activity calls are given as the source filed them. No stated cut-off is given here; in the data, active = GI50 up to about 1.1 µM and inactive = higher.

Assays:
Assay in all cases: growth of human tumour cells (NCI), 48 h
SW-620 = tested on: SW-620
COLO 205 = tested on: COLO 205
SNB-78 = tested on: SNB-78
SK-OV-3 = tested on: SK-OV-3
RXF 393 = tested on: RXF 393
M19-MEL = tested on: M19-MEL
DMS-114 = tested on: DMS-114
OVCAR-4 = tested on: OVCAR-4
HCT-116 = tested on: HCT-116
Malme-3M = tested on: Malme-3M
DLD-1 = tested on: DLD-1
NCI-H522 = tested on: NCI-H522
SF-295 = tested on: SF-295
EKVX = tested on: EKVX
U-251 = tested on: U-251
A549 = tested on: A549
IGROV-1 = tested on: IGROV-1
SN12C = tested on: SN12C
OVCAR-3 = tested on: OVCAR-3
SK-MEL-28 = tested on: SK-MEL-28
OVCAR-5 = tested on: OVCAR-5
HL-60 = tested on: HL-60
KM-20L2 = tested on: KM-20L2
OVCAR-8 = tested on: OVCAR-8
TK-10 = tested on: TK-10
LOX IMVI = tested on: LOX IMVI
UACC-257 = tested on: UACC-257
CAKI-1 = tested on: CAKI-1
M14 = tested on: M14
KM12 = tested on: KM12
UO-31 = tested on: UO-31
HOP-62 = tested on: HOP-62
NCI-H460 = tested on: NCI-H460
HCC 2998 = tested on: HCC 2998
786-0 = tested on: 786-0
A498 = tested on: A498
SK-MEL-2 = tested on: SK-MEL-2
NCI-H23 = tested on: NCI-H23
RPMI-8226 = tested on: RPMI-8226
NCI-H226 = tested on: NCI-H226
ACHN = tested on: ACHN
HCT-15 = tested on: HCT-15
XF498 = tested on: XF498
CCRF-CEM = tested on: CCRF-CEM
HOP-18 = tested on: HOP-18
UACC-62 = tested on: UACC-62
SF-268 = tested on: SF-268
HT-29 = tested on: HT-29
DMS-273 = tested on: DMS-273
K562 = tested on: K562
SK-MEL-5 = tested on: SK-MEL-5
HOP-92 = tested on: HOP-92
SNB-19 = tested on: SNB-19
MOLT-4 = tested on: MOLT-4
SF-539 = tested on: SF-539
LXFL 529 = tested on: LXFL 529
SNB-75 = tested on: SNB-75
SR = tested on: SR

SMILES: CCCCCCCCCCCCCC(=O)CC(=O)c1c(O)cccc1O
- GI50 (SW-620): 23.6 µM (inactive)
- GI50 (COLO 205): 22.5 µM (inactive)
- GI50 (SNB-78): 32.3 µM (inactive)
- GI50 (SK-OV-3): 38.6 µM (inactive)
- GI50 (RXF 393): > 100 µM (inactive)
- GI50 (M19-MEL): 30.5 µM (inactive)
- GI50 (DMS-114): 21.5 µM (inactive)
- GI50 (OVCAR-4): 33.4 µM (inactive)
- GI50 (HCT-116): 43.6 µM (inactive)
- GI50 (Malme-3M): 28.8 µM (inactive)
- GI50 (DLD-1): 41.6 µM (inactive)
- GI50 (NCI-H522): 22.7 µM (inactive)
- GI50 (SF-295): 42.4 µM (inactive)
- GI50 (EKVX): 30.6 µM (inactive)
- GI50 (U-251): 35.6 µM (inactive)
- GI50 (A549): 51.1 µM (inactive)
- GI50 (IGROV-1): 48 µM (inactive)
- GI50 (SN12C): 33.6 µM (inactive)
- GI50 (OVCAR-3): 18.9 µM (inactive)
- GI50 (SK-MEL-28): > 100 µM (inactive)
- GI50 (OVCAR-5): 46.6 µM (inactive)
- GI50 (HL-60): 20.8 µM (inactive)
- GI50 (KM-20L2): 47.4 µM (inactive)
- GI50 (OVCAR-8): 44.3 µM (inactive)
- GI50 (TK-10): 51.6 µM (inactive)
- GI50 (LOX IMVI): 19.6 µM (inactive)
- GI50 (UACC-257): 32.4 µM (inactive)
- GI50 (CAKI-1): 34 µM (inactive)
- GI50 (M14): 44.7 µM (inactive)
- GI50 (KM12): 41.1 µM (inactive)
- GI50 (UO-31): 32.7 µM (inactive)
- GI50 (HOP-62): 34.4 µM (inactive)
- GI50 (NCI-H460): 36.1 µM (inactive)
- GI50 (HCC 2998): 38.2 µM (inactive)
- GI50 (786-0): 34.9 µM (inactive)
- GI50 (A498): > 100 µM (inactive)
- GI50 (SK-MEL-2): 19.2 µM (inactive)
- GI50 (NCI-H23): 23 µM (inactive)
- GI50 (RPMI-8226): 25.5 µM (inactive)
- GI50 (NCI-H226): 28.4 µM (inactive)
- GI50 (ACHN): 28.2 µM (inactive)
- GI50 (HCT-15): 25.2 µM
- GI50 (XF498): 24.5 µM (inactive)
- GI50 (CCRF-CEM): 21.1 µM (inactive)
- GI50 (HOP-18): 33.3 µM (inactive)
- GI50 (UACC-62): 47.3 µM (inactive)
- GI50 (SF-268): 61.8 µM (inactive)
- GI50 (HT-29): 27.2 µM (inactive)
- GI50 (DMS-273): 22.1 µM (inactive)
- GI50 (K562): 21 µM (inactive)
- GI50 (SK-MEL-5): > 100 µM (inactive)
- GI50 (HOP-92): 22.4 µM (inactive)
- GI50 (SNB-19): 36.4 µM (inactive)
- GI50 (MOLT-4): 21.5 µM (inactive)
- GI50 (SF-539): 49.5 µM (inactive)
- GI50 (LXFL 529): 35.2 µM (inactive)
- GI50 (SNB-75): 39.5 µM (inactive)

SMILES: O=C(Cn1cc(I)c(C(=O)NCC(O)CO)n1)NCC(O)CO (stereo unspecified)
- GI50 (SW-620): > 100 µM (inactive)
- GI50 (COLO 205): > 100 µM (inactive)
- GI50 (SNB-78): > 100 µM (inactive)
- GI50 (SK-OV-3): > 100 µM (inactive)
- GI50 (RXF 393): > 100 µM (inactive)
- GI50 (M19-MEL): > 100 µM (inactive)
- GI50 (DMS-114): > 100 µM (inactive)
- GI50 (OVCAR-4): > 100 µM (inactive)
- GI50 (HCT-116): > 100 µM (inactive)
- GI50 (Malme-3M): > 100 µM (inactive)
- GI50 (DLD-1): > 100 µM (inactive)
- GI50 (NCI-H522): > 100 µM (inactive)
- GI50 (SF-295): > 100 µM (inactive)
- GI50 (EKVX): > 100 µM (inactive)
- GI50 (U-251): > 100 µM (inactive)
- GI50 (A549): > 100 µM (inactive)
- GI50 (IGROV-1): > 100 µM (inactive)
- GI50 (SN12C): > 100 µM (inactive)
- GI50 (OVCAR-3): > 100 µM (inactive)
- GI50 (SK-MEL-28): > 100 µM (inactive)
- GI50 (HL-60): > 100 µM (inactive)
- GI50 (KM-20L2): > 100 µM (inactive)
- GI50 (OVCAR-8): > 100 µM (inactive)
- GI50 (TK-10): > 100 µM (inactive)
- GI50 (LOX IMVI): > 100 µM (inactive)
- GI50 (UACC-257): > 100 µM (inactive)
- GI50 (M14): > 100 µM (inactive)
- GI50 (KM12): > 100 µM (inactive)
- GI50 (UO-31): > 100 µM (inactive)
- GI50 (HOP-62): > 100 µM (inactive)
- GI50 (NCI-H460): > 100 µM (inactive)
- GI50 (HCC 2998): > 100 µM (inactive)
- GI50 (786-0): > 100 µM (inactive)
- GI50 (A498): > 100 µM (inactive)
- GI50 (SK-MEL-2): > 100 µM (inactive)
- GI50 (NCI-H23): > 100 µM (inactive)
- GI50 (RPMI-8226): > 100 µM (inactive)
- GI50 (NCI-H226): > 100 µM (inactive)
- GI50 (ACHN): > 100 µM (inactive)
- GI50 (HCT-15): > 100 µM
- GI50 (XF498): > 100 µM (inactive)
- GI50 (CCRF-CEM): > 100 µM (inactive)
- GI50 (HOP-18): > 100 µM (inactive)
- GI50 (UACC-62): > 100 µM (inactive)
- GI50 (SF-268): > 100 µM (inactive)
- GI50 (HT-29): > 100 µM (inactive)
- GI50 (DMS-273): > 100 µM (inactive)
- GI50 (K562): > 100 µM (inactive)
- GI50 (HOP-92): > 100 µM (inactive)
- GI50 (SNB-19): > 100 µM (inactive)
- GI50 (MOLT-4): > 100 µM (inactive)
- GI50 (SF-539): > 100 µM (inactive)
- GI50 (LXFL 529): > 100 µM (inactive)
- GI50 (SNB-75): > 100 µM (inactive)

SMILES: O=C(O)C(C(=O)C(=O)C(C(=O)O)c1ccc(Cl)cc1)c1ccc(Cl)cc1 (stereo unspecified)
- GI50 (SW-620): 3.98 µM (inactive)
- GI50 (COLO 205): 6.44 µM (inactive)
- GI50 (SNB-78): 3.27 µM (inactive)
- GI50 (SK-OV-3): 5.89 µM (inactive)
- GI50 (RXF 393): 3.92 µM (inactive)
- GI50 (M19-MEL): 3.39 µM (inactive)
- GI50 (DMS-114): 2.24 µM (inactive)
- GI50 (SR): 1.91 µM (inactive)
- GI50 (OVCAR-4): 1.89 µM (inactive)
- GI50 (HCT-116): 3.1 µM (inactive)
- GI50 (Malme-3M): 2.5 µM (inactive)
- GI50 (DLD-1): 3.52 µM (inactive)
- GI50 (NCI-H522): 1.88 µM (inactive)
- GI50 (SF-295): 8.65 µM (inactive)
- GI50 (EKVX): 3.27 µM (inactive)
- GI50 (U-251): 3.22 µM (inactive)
- GI50 (A549): 2.9 µM (inactive)
- GI50 (IGROV-1): 3.23 µM (inactive)
- GI50 (SN12C): 2.94 µM (inactive)
- GI50 (OVCAR-3): 2.9 µM (inactive)
- GI50 (SK-MEL-28): 4.54 µM (inactive)
- GI50 (OVCAR-5): 4.25 µM (inactive)
- GI50 (HL-60): 2.18 µM (inactive)
- GI50 (KM-20L2): 3.31 µM (inactive)
- GI50 (OVCAR-8): 2.25 µM (inactive)
- GI50 (TK-10): 4.57 µM (inactive)
- GI50 (LOX IMVI): 2.56 µM (inactive)
- GI50 (UACC-257): 2.75 µM (inactive)
- GI50 (CAKI-1): 4.13 µM (inactive)
- GI50 (M14): 4.45 µM (inactive)
- GI50 (KM12): 3.75 µM (inactive)
- GI50 (UO-31): 4.72 µM (inactive)
- GI50 (HOP-62): 5.22 µM (inactive)
- GI50 (NCI-H460): 3.46 µM (inactive)
- GI50 (HCC 2998): 4.02 µM (inactive)
- GI50 (786-0): 4.2 µM (inactive)
- GI50 (A498): 4.76 µM (inactive)
- GI50 (NCI-H23): 2 µM (inactive)
- GI50 (RPMI-8226): 2.13 µM (inactive)
- GI50 (NCI-H226): 4.58 µM (inactive)
- GI50 (ACHN): 3.64 µM (inactive)
- GI50 (XF498): 2.43 µM (inactive)
- GI50 (CCRF-CEM): 2.34 µM (inactive)
- GI50 (HOP-18): 5.32 µM (inactive)
- GI50 (UACC-62): 1.87 µM (inactive)
- GI50 (SF-268): 2.9 µM (inactive)
- GI50 (HT-29): 3.72 µM (inactive)
- GI50 (DMS-273): 3.64 µM (inactive)
- GI50 (K562): 2.57 µM (inactive)
- GI50 (HOP-92): 3.11 µM (inactive)
- GI50 (SNB-19): 3.68 µM (inactive)
- GI50 (MOLT-4): 1.72 µM (inactive)
- GI50 (SF-539): 2.15 µM (inactive)
- GI50 (LXFL 529): 2.52 µM (inactive)
- GI50 (SNB-75): 3.32 µM (inactive)
